Test results published in article PMC11597202, “Novel Thiazole-Fused [4,5-g] or [5,4-g]Quinazolin-8-ones and Their Quinazoline Analogues: Synthesis and Biological Evaluation” (Pharmaceuticals, 2024).

Columns and labels:
JAK3 = target: T1, JAK3 (Homo sapiens, UniProt P52333); experiment: ADP-Glo kinase inhibition assay, JAK3; assay type: biochemical; details: for remaining activity at 1 µM: 1 μM compound; for remaining activity at 1 µM / remaining activity at 10 µM: percentage of maximum activity of the DMSO control, mean n = 2, 10 µM ATP, read-out: Residual activity JAK3; for remaining activity at 10 µM: 10 μM compound; for Inhibition of JAK3 kinase activity: span over the tested concentrations (1 and 10 μM)
T1 construct: host or cells: Sf9 insect cells (baculovirus)
T1 sequence (P52333 1-1124): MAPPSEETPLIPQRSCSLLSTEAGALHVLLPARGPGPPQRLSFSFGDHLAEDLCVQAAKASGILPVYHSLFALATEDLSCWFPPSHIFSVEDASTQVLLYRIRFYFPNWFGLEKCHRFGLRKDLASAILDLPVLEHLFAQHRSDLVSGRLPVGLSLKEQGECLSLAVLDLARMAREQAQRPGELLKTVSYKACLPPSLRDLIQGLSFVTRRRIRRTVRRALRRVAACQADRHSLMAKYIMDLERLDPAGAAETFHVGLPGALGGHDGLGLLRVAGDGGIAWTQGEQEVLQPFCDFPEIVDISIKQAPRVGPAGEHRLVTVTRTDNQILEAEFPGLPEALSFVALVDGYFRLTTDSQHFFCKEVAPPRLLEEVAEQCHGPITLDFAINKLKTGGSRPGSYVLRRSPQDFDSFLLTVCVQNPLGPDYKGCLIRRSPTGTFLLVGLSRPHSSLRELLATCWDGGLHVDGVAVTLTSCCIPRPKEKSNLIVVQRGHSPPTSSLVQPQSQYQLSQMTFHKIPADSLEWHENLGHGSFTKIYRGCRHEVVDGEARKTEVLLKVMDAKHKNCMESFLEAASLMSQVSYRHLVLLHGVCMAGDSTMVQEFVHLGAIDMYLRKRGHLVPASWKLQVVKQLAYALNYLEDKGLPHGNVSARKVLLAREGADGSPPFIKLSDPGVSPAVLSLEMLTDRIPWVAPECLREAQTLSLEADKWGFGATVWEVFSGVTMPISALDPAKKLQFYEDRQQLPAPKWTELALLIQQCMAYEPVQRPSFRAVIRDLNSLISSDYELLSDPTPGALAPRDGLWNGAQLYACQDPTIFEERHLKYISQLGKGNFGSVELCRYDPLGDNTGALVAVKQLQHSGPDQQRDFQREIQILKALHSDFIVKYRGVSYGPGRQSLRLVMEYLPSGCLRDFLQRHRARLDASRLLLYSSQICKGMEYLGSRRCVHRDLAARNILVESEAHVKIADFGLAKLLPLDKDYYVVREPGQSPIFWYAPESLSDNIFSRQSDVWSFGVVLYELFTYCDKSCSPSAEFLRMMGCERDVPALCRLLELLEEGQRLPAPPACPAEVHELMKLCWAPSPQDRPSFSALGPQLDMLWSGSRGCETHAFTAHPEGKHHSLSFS
Protocol: (§1) Kinase enzymatic activities were assayed in 384-well plates using the ADP-Glo^TM assay kit (Promega, Madison, WI, USA) according to the recommendations of the manufacturer. This luminescent ADP detection assay was described by Zegzouti and co-workers and provides a homogeneous and high-throughput screening method to measure kinase activity by quantifying the amount of ADP produced during a kinase reaction. Briefly, the reactions were carried out in a final volume of 6 µL for 30 min at 30 °C in an appropriate kinase buffer (10 mM MgCl2, 1 mM EGTA, 1 mM DTT, 25 mM Tris-HCl pH 7.5, 50 µg/mL heparin), with peptide or protein as substrate in the presence of 10 µM ATP. Peptide substrates were obtained from ProteoGenix (Schiltigheim, France) or Sigma for Histone H1, Poly (L-glutamic acid–L-tyrosine) sodium salt, Casein and MBP. After that, 6 µL of ADP-Glo^TM Kinase Reagent was added to stop the kinase reaction. After an incubation time of 50 min at room temperature (rt), 12 µL of Kinase Detection Reagent was added for one hour at rt. The transmitted signal was measured using the Envision (PerkinElmer, Waltham, MA, USA) microplate luminometer and expressed as Relative Light Units (RLUs). Kinase activities are expressed as percentages of remaining kinase activities detected after treatment with 1 or 10 µM of the tested compounds. The maximum kinase activity was measured in the absence of inhibitor but with an equivalent dose of DMSO (solvent of the tested compounds).
(§2) 3. Kinase inhibition assays
(§3) Kinase enzymatic activities were assayed in 384-well plates using the ADP-GloTM assay kit (Promega, Madison, WI) according to the recommendations of the manufacturer. This luminescent ADP detection assay was described by Zegzouti and co-workers and provides a homogeneous and high-throughput screening method to measure kinase activity by quantifying the amount of ADP produced during a kinase reaction. Briefly, the reactions were carried out in a final volume of 6 µl for 30 min at 30°C in appropriate kinase buffer (10 mM MgCl2, 1 mM EGTA, 1 mM DTT, 25 mM Tris-HCl pH 7.5, 50 µg/mL heparin), with peptide or protein as substrate in the presence of 10 µM ATP. Peptide substrates were obtained from ProteoGenix (Schiltigheim, France) or Sigma for Histone H1, Poly (L-glutamic acid – L-tyrosine) sodium salt, Casein and MBP. After that, 6 µL of ADP-GloTM Kinase Reagent was added to stop the kinase reaction. After an incubation time of 50 min at room temperature (rt), 12 µL of Kinase Detection Reagent was added for 1 h at rt. The transmitted signal was measured using the Envision (PerkinElmer, Waltham, MA) microplate luminometer and expressed in Relative Light Unit (RLU). Kinase activities are expressed in percentages of remaining kinase activities detected after treatment with 1 or 10 µM of the tested compounds. The maximal kinase activity is measured in the absence of inhibitor but with an equivalent dose of DMSO (solvent of the tested compounds).
(§4) Table. Human protein kinases tested in the panel: CDK9, HASPIN, PIM1, GSK3b, CK1ε, JAK3, CLK1 […]
(§5) Protein Kinase Enzyme Description Substrate1
(§6) (Family) (Working concentration)
(§7) CDK9/CyclinT Human, recombinant, expressed by Peptide:
(§8) (CMGC) baculovirus in Sf9 insect cells […]
(§9) CLK1 Human, recombinant, expressed by Peptide: […]
(§10) (CMGC) baculovirus in Sf9 insect cells (57.3µM)
(§11) DYRK1A Human, recombinant, expressed by Peptide: […]
(§12) (CMGC) baculovirus in Sf9 insect cells (10.7µM)
(§13) PIM1 Human proto-oncogene, recombinant, Peptide: […]
(§14) (CAMK) expressed in bacteria (630 µM)
(§15) GSK3 Human, recombinant, expressed by Peptide:
(§16) (CMGC) baculovirus in Sf9 insect cells […]pEDEEE 3
(§17) HASPIN Human, kinase domain, amino acids 470 to Histone H3 peptide (1-21):
(§18) (Other) 798, recombinant, expressed in bacteria […] (8µM)
(§19) CK1ε Human, recombinant, expressed by Peptide: […]pAYSITA 2
(§20) (CK1) baculovirus in Sf9 insect cells (170µM)
(§21) JAK3 Human, recombinant, expressed by Peptide: […]
(§22) (TK) baculovirus in Sf9 insect cells (94µM) […]

Pim-1 = target: T2, Pim-1 (Homo sapiens, UniProt P11309); experiment: ADP-Glo kinase inhibition assay, Pim-1; assay type: biochemical; details: percentage of maximum activity of the DMSO control, mean n = 2, 10 µM ATP, read-out: Residual activity Pim-1; for remaining activity at 1 µM: 1 μM compound; for remaining activity at 10 µM: 10 μM compound
T2 construct: host or cells: bacteria
Protocol: as §1, §2, §3, §4, §5, §6, §7, §8, §9, §10, §11, §12, §13, §14, §15, §16, §17, §18, §19, §20, §21, §22

T2 sequence (P11309 whole entry): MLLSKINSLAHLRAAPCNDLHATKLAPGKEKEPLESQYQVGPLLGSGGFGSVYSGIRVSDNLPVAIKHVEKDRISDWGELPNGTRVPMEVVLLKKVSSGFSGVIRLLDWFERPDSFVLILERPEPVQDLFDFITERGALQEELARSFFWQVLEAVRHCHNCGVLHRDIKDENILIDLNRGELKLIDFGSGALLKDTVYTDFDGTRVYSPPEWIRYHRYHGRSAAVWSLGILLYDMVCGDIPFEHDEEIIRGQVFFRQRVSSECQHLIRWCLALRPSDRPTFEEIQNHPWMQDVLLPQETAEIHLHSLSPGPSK

SMILES | remaining activity at 1 µM (JAK3) | remaining activity at 10 µM (JAK3) | melting point | remaining activity at 1 µM (Pim-1) | remaining activity at 10 µM (Pim-1) | Inhibition of JAK3 kinase activity (JAK3)
COC(=N)c1nc2cc3ncn(Cc4ccccc4)c(=O)c3cc2s1 [Compound 6b, Methyl 7-benzyl-8-oxo-7,8-dihydrothiazolo[5,4-g]quinazoline-2-carbimidate] | 92% | 73% | 244 to 245 °C | 90% | 78% | –
COC(=N)c1nc2c(ccc3c(=O)n(Cc4ccccc4)cnc32)s1 [Compound 6c, Methyl 7-benzyl-6-oxo-6,7-dihydrothiazolo[5,4-h]quinazoline-2-carbimidate] | 59% | 44% | 213 to 214 °C | 74% | 86% | –
COC(=N)c1nc2ccc3c(=O)n(Cc4ccccc4)cnc3c2s1 [Compound 6d, Methyl 7-benzyl-6-oxo-6,7-dihydrothiazolo[4,5-h]quinazoline-2-carbimidate] | 80% | 92% | 205 to 206 °C | 92% | 94% | –
COC(=N)c1nc2ccc3ncnc(Nc4ccc(OC)cc4F)c3c2s1 [Compound II, methyl 9-[(2-fluoro-4-methoxyphenyl)amino]thiazolo[5,4-f]quinazoline-2-carbimidate, reference compound] | 69% | 54% | – | 52% | 32% | –
COC(=N)c1nc2cc3c(=O)n(Cc4ccccc4)cnc3cc2s1 [Compound 6a, Methyl 7-benzyl-8-oxo-7,8-dihydrothiazolo[4,5-g]quinazoline-2-carbimidate] | 55% | 36% | 213 to 214 °C | 80% | 133% | –
COC(=N)c1nc2ccc3ncn(Cc4ccccc4)c(=O)c3c2s1 [Compound I, methyl 8-benzyl-9-oxo-8,9-dihydrothiazolo[5,4-f]quinazoline-2-carbimidate, reference compound] | 48% | 52% | – | 79% | 77% | –

More lines, now with the values ahead:

remaining activity at 1 µM (JAK3) | remaining activity at 10 µM (JAK3) | melting point | remaining activity at 1 µM (Pim-1) | remaining activity at 10 µM (Pim-1) | Inhibition of JAK3 kinase activity (JAK3) | SMILES
64% | 58% | 246 to 247 °C | 71% | 113% | around 38% | COC(=N)c1nc2cc3c(Nc4ccc(OC)cc4F)ncnc3cc2s1 [Compound 15a, Methyl 8-[(2-fluoro-4-methoxyphenyl)amino]thiazolo[4,5-g]quinazoline-2-carbimidate]
68% | 60% | 239 to 240 °C | 74% | 105% | around 38% | COC(=N)c1nc2cc3ncnc(Nc4ccc(OC)cc4F)c3cc2s1 [Compound 15b, Methyl 8-[(2-fluoro-4-methoxyphenyl)amino]thiazolo[5,4-g]quinazoline-2-carbimidate]
